Assay [1] in a line: Inhibition of TNF-alpha (unknown origin) binding to TNFR2 assessed as dissociation constant of TNF-alpha preincubated for 15 mins by MST assay (Rvb = 30.5 nM).
Assay [2] is described as follows: Inhibition of TNF-alpha (unknown origin) binding to TNFR1 assessed as dissociation constant of TNF-alpha preincubated for 15 mins by MST assay (Rvb = 13.4 nM).

pKd: −log10 of the molar value. Peptide text beside a SMILES is read from it.

As a reminder, the pKd is −log10 of the Kd, conventionally taken in molar units. `C[C@H](N)C(=O)N[C@@H](CS)C(=O)N[C@@H](Cc1cnc[nH]1)C(=O)N[C@@H](C)C(=O)N[C@@H](Cc1c[nH]c2ccccc12)C(=O)N[C@@H](C)C(=O)N1CCC[C@H]1C(=O)N[C@H](C(=O)N[C@@H](CCCNC(=N)N)C(=O)O)[C@@H](C)O` (H-ACHAWAPTR-OH): the negative logarithm of the Kd (pKd) in assay [1] was 6.49; in assay [2], 6.00.

These data come from BindingDB's records for PubMed 37191335 (Tongji University, 2023).
